Results from patent US12310975B2, “Modulators of BCL6 proteolysis and associated methods of use” (Arvinas Operations, Inc., priority 2019, dated 2025).
Like-named read-outs stand apart in the source and are kept apart here.

Biological target: BCL6 (Homo sapiens (Human), UniProt P41182)
Assay: Immunofluorescence high content imaging of BCL6 degradation in T47D cells
Assay type: cell-based
Details: for DC50: class symbols A-D, read-out: EC50 (nM)*
How it was run: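 T47D cells were treated 3 days at 37 °C with an 11-point 3-fold dilution series (top 0.1 or 1 μM), then fixed, permeabilized and immunostained for BCL6 with Alexa-488 secondary, CellMask and Hoechst. BCL6 signal was imaged at 10×, 4 fields/well, with top-hat smoothing.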

Dmax (T47D cells) [%]	IC50 (T47D cells) [nM]	SMILES	other results
50 to 70	< 10	CNC(=O)COc1cc2cc(Nc3nc(N4CCC(CN5CC6(CCN(c7cccc8c7C(=O)N(C7CCC(=O)NC7=O)C8=O)CC6)C5)CC4)ncc3Cl)ccc2n(C(C)C)c1=O (stereo not drawn) [compound 439, 2-{[6-({5-chloro-2-[4-({7-[2-(2,6-dioxopiperidin-3-yl)-1,3-dioxo-2,3-dihydro-1H-isoindol-4-yl]-2,7-diazaspiro[3.5]nonan-2-yl}methyl)piperidin-1-yl]pyrimidin-4-yl}amino)-2-oxo-1-(propan-2-yl)-1,2-dihydroquinolin-3-yl]oxy}-N-methylacetamide]	–
50 to 70	10 to 50	CCCN(C1CCN(c2ccc3c(c2)C(=O)N(C2CCC(=O)NC2=O)C3=O)CC1)C1CCN(c2ncc(Cl)c(Nc3ccc4c(c3)cc(OCC(=O)NC)c(=O)n4C)n2)CC1 (stereo not drawn) [compound 327, 2-{[6-({5-chloro-2-[4-({1-[2-(2,6-dioxopiperidin-3-yl)-1,3-dioxo-2,3-dihydro-1H-isoindol-5-yl]piperidin-4-yl}(propyl)amino)piperidin-1-yl]pyrimidin-4-yl}amino)-1-methyl-2-oxo-1,2-dihydroquinolin-3-yl]oxy}-N-methylacetamide]	–
≥ 70	10 to 50	CCn1c(=O)c(OCC(=O)NC)cc2cc(Nc3nc(N4CCC(CN5CCC(c6ccc7c(c6)C(=O)N(C6CCC(=O)NC6=O)C7=O)CC5)CC4)ncc3Cl)ccc21 (stereo not drawn) [compound 364, 2-{[6-({5-chloro-2-[4-({4-[2-(2,6-dioxopiperidin-3-yl)-1,3-dioxo-2,3-dihydro-1H-isoindol-5-yl]piperidin-1-yl}methyl)piperidin-1-yl]pyrimidin-4-yl}amino)-1-ethyl-2-oxo-1,2-dihydroquinolin-3-yl]oxy}-N-methylacetamide]	–
–	–	CNC(=O)COc1cc2cc(Nc3nc(N4CCC(CN5CC6(C5)CN(c5ccc7c(c5)C(=O)N(C5CCC(=O)NC5=O)C7=O)C6)CC4)ncc3Cl)ccc2n(C(C)C)c1=O (stereo not drawn) [compound 306, 2-{[6-({5-chloro-2-[4-({6-[2-(2,6-dioxopiperidin-3-yl)-1,3-dioxo-2,3-dihydro-1H-isoindol-5-yl]-2,6-diazaspiro[3.3]heptan-2-yl}methyl)piperidin-1-yl]pyrimidin-4-yl}amino)-2-oxo-1-(propan-2-yl)-1,2-dihydroquinolin-3-yl]oxy}-N-methylacetamide]	IC50: < 10 nM; Dmax (T47D): ≥ 70%
–	–	CC(=O)COc1cc2cc(Nc3nc(N4CC(OC5CCN(c6ccc7c(c6)C(=O)N(C6CCC(=O)NC6=O)C7=O)CC5)C4)ncc3Cl)ccc2n(C)c1=O (stereo not drawn) [compound 183, 5-(4-((1-(5-chloro-4-((1-methyl-2-oxo-3-(2-oxopropoxy)-1,2-dihydroquinolin-6-yl)amino)pyrimidin-2-yl)azetidin-3-yl)oxy)piperidin-1-yl)-2-(2,6-dioxopiperidin-3-yl)isoindoline-1,3-dione]	IC50: 10 to 50 nM; Dmax (T47D): < 50%
≥ 70	< 10	CNC(=O)COc1cc2cc(Nc3nc(N4CCC(CN5CCC6(CC5)CN(c5cccc7c5C(=O)N(C5CCC(=O)NC5=O)C7=O)C6)CC4)ncc3Cl)ccc2n(C(C)C)c1=O (stereo not drawn) [compound 418, 2-{[6-({5-chloro-2-[4-({2-[2-(2,6-dioxopiperidin-3-yl)-1,3-dioxo-2,3-dihydro-1H-isoindol-4-yl]-2,7-diazaspiro[3.5]nonan-7-yl}methyl)piperidin-1-yl]pyrimidin-4-yl}amino)-2-oxo-1-(propan-2-yl)-1,2-dihydroquinolin-3-yl]oxy}-N-methylacetamide]	–
–	≥ 100	CNC(=O)COc1cc2cc(Nc3nc(N4CCN(CC5CCN(C(=O)c6cccc(N7CCC(=O)NC7=O)c6)CC5)CC4)ncc3Cl)ccc2n(C(C)C)c1=O [compound 407, 2-{[6-({5-chloro-2-[4-({1-[3-(2,4-dioxo-1,3-diazinan-1-yl)benzoyl]piperidin-4-yl}methyl)piperazin-1-yl]pyrimidin-4-yl}amino)-2-oxo-1-(propan-2-yl)-1,2-dihydroquinolin-3-yl]oxy}-N-methylacetamide]	–
50 to 70	10 to 50	CNC(=O)COc1cc2cc(Nc3nc(N4CCC(CN5CCC(c6nc(C(=O)NC7CCC(=O)NC7=O)cs6)CC5)CC4)ncc3Cl)ccc2n(C)c1=O (stereo not drawn) [compound 360, 2-[1-({1-[5-chloro-4-({1-methyl-3-[(methylcarbamoyl)methoxy]-2-oxo-1,2-dihydroquinolin-6-yl}amino)pyrimidin-2-yl]piperidin-4-yl}methyl)piperidin-4-yl]-N-(2,6-dioxopiperidin-3-yl)-1,3-thiazole-4-carboxamide]	–
–	–	CNC(=O)COc1cc2cc(Nc3nc(N4CCN(CC5(O)CCN(c6ccc7c(c6)C(=O)N(C6CCC(=O)NC6=O)C7=O)CC5)CC4)ncc3Cl)ccc2n(C)c1=O (stereo not drawn) [compound 240, 2-((6-((5-chloro-2-(4-((1-(2-(2,6-dioxopiperidin-3-yl)-1,3-dioxoisoindolin-5-yl)-4-hydroxypiperidin-4-yl)methyl)piperazin-1-yl)pyrimidin-4-yl)amino)-1-methyl-2-oxo-1,2-dihydroquinolin-3-yl)oxy)-N-methylacetamide]	IC50: 10 to 50 nM; Dmax (T47D): 50 to 70%
–	–	CNC(=O)COc1cc2cc(Nc3nc(N4CCC(Oc5ccc(OCCCOCCOCCOc6ccc7c(c6)CN(C6CCC(=O)NC6=O)C7=O)cc5)CC4)ncc3Cl)ccc2n(C)c1=O (stereo not drawn) [compound 96, 2-((6-((5-chloro-2-(4-(4-(3-(2-(2-((2-(2,6-dioxopiperidin-3-yl)-1-oxoisoindolin-5-yl)oxy)ethoxy)ethoxy)propoxy)phenoxy)piperidin-1-yl)pyrimidin-4-yl)amino)-1-methyl-2-oxo-1,2-dihydroquinolin-3-yl)oxy)-N-methylacetamide]	DC50: > 100 nM
–	–	CNC(=O)COc1cc2cc(Nc3nc(N4CCC(OCCOCCOCCOCCc5cccc(Oc6ccc7c(c6)CN(C6CCC(=O)NC6=O)C7=O)c5)CC4)ncc3Cl)ccc2n(C)c1=O (stereo not drawn) [compound 126, 2-((6-((5-chloro-2-(4-(2-(2-(2-(3-((2-(2,6-dioxopiperidin-3-yl)-1-oxoisoindolin-5-yl)oxy)phenethoxy)ethoxy)ethoxy)ethoxy)piperidin-1-yl)pyrimidin-4-yl)amino)-1-methyl-2-oxo-1,2-dihydroquinolin-3-yl)oxy)-N-methylacetamide]	DC50: > 100 nM
–	–	CC(=O)COc1cc2cc(Nc3nc(N4CCC(OCCOCCOCCOCCOCCOc5ccc6c(c5)CN(C5CCC(=O)NC5=O)C6=O)CC4)ncc3Cl)ccc2n(C)c1=O (stereo not drawn) [compound 98, 3-(5-((14-((1-(5-chloro-4-((1-methyl-2-oxo-3-(2-oxopropoxy)-1,2-dihydroquinolin-6-yl)amino)pyrimidin-2-yl)piperidin-4-yl)oxy)-3,6,9,12-tetraoxatetradecyl)oxy)-1-oxoisoindolin-2-yl)piperidine-2,6-dione]	DC50: 10 to 50 nM
50 to 70	< 10	CNC(=O)COc1cc2cc(Nc3nc(N4CCC(CN5CCC6(CC5)CN(c5ccc7c(c5)C(=O)N(C5CCC(=O)NC5=O)C7=O)C6)CC4)ncc3Cl)ccc2n(C(C)C)c1=O (stereo not drawn) [compound 372, 2-{[6-({5-chloro-2-[4-({2-[2-(2,6-dioxopiperidin-3-yl)-1,3-dioxo-2,3-dihydro-1H-isoindol-5-yl]-2,7-diazaspiro[3.5]nonan-7-yl}methyl)piperidin-1-yl]pyrimidin-4-yl}amino)-2-oxo-1-(propan-2-yl)-1,2-dihydroquinolin-3-yl]oxy}-N-methylacetamide]	–
–	–	CNC(=O)COc1cc2cc(Nc3nc(N4CCC(OCCOCCOCCOCCOCCOCCOc5ccc6c(c5)C(=O)N(C5CCC(=O)NC5=O)C6=O)CC4)ncc3Cl)ccc2n(C)c1=O (stereo not drawn) [compound 68, 2-((6-((5-chloro-2-(4-((17-((2-(2,6-dioxopiperidin-3-yl)-1,3-dioxoisoindolin-5-yl)oxy)-3,6,9,12,15-pentaoxaheptadecyl)oxy)piperidin-1-yl)pyrimidin-4-yl)amino)-1-methyl-2-oxo-1,2-dihydroquinolin-3-yl)oxy)-N-methylacetamide]	DC50: > 100 nM
< 50	50 to 100	CNC(=O)COc1cc2cc(Nc3nc(N4CCC(CN5CCC6(CC5)CN(c5cccc(C(=O)NC7CCC(=O)NC7=O)c5OC)C6)CC4)ncc3Cl)ccc2n(C(C)C)c1=O (stereo not drawn) [compound 420, 3-[7-({1-[5-chloro-4-({3-[(methylcarbamoyl)methoxy]-2-oxo-1-(propan-2-yl)-1,2-dihydroquinolin-6-yl}amino)pyrimidin-2-yl]piperidin-4-yl}methyl)-2,7-diazaspiro[3.5]nonan-2-yl]-N-(2,6-dioxopiperidin-3-yl)-2-methoxybenzamide]	–
< 50	≥ 100	CNC(=O)COc1cc2cc(Nc3nc(N4CCO[C@H](COc5ccc(C(=O)NC6CCC(=O)NC6=O)nc5)C4)ncc3Cl)ccc2n(C(C)C)c1=O (stereo partly drawn) [compound 349, 5-{[(2S)-4-[5-chloro-4-({3-[(methylcarbamoyl)methoxy]-2-oxo-1-(propan-2-yl)-1,2-dihydroquinolin-6-yl}amino)pyrimidin-2-yl]morpholin-2-yl]methoxy}-N-(2,6-dioxopiperidin-3-yl)pyridine-2-carboxamide]	–
–	–	CCn1c(=O)c(OCC(=O)NC)cc2cc(Nc3nc(N4CCC(OC5CC6(C5)CN(c5ccc7c(c5)C(=O)N(C5CCC(=O)NC5=O)C7=O)C6)CC4)ncc3Cl)ccc21 (stereo not drawn) [compound 303, 2-{[6-({5-chloro-2-[4-({2-[2-(2,6-dioxopiperidin-3-yl)-1,3-dioxo-2,3-dihydro-1H-isoindol-5-yl]-2-azaspiro[3.3]heptan-6-yl}oxy)piperidin-1-yl]pyrimidin-4-yl}amino)-1-ethyl-2-oxo-1,2-dihydroquinolin-3-yl]oxy}-N-methylacetamide]	IC50: < 10 nM; Dmax (T47D): 50 to 70%
–	–	CNC(=O)COc1cc2cc(Nc3nc(N4CCC(OCCOCCOCCOCCOc5cccc(-c6ccc7c(c6)CN(C6CCC(=O)NC6=O)C7=O)c5)CC4)ncc3Cl)ccc2n(C)c1=O (stereo not drawn) [compound 109, 2-((6-((5-chloro-2-(4-(2-(2-(2-(2-(3-(2-(2,6-dioxopiperidin-3-yl)-1-oxoisoindolin-5-yl)phenoxy)ethoxy)ethoxy)ethoxy)ethoxy)piperidin-1-yl)pyrimidin-4-yl)amino)-1-methyl-2-oxo-1,2-dihydroquinolin-3-yl)oxy)-N-methylacetamide]	DC50: > 100 nM
